According to US6737383B1, “Herbicidal oxadiazolidines” (priority 1999, dated 2004):

Experiments:
wild oat = assay: Test B pre/postemergence wild oat; format: in vivo, Avena fatua
Summary of the method: (§1)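 Response is a visual 0-to-10 score relative to untreated plants, where 0 means no effect and 10 means complete control, taken twelve to sixteen days after application. Treatments went onto soil at planting and onto foliage of 1- to 4-leaf plants, using a surfactant-containing non-phytotoxic solvent.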

giant foxtail = assay: Test B pre/postemergence giant foxtail; format: in vivo, Setaria faberii
Summary of the method: as §1

soybean = assay: Test B pre/postemergence soybean; format: in vivo, Glycine max
Summary of the method: as §1

rape = assay: Test B pre/postemergence rape; format: in vivo, Brassica napus
Summary of the method: as §1

rice = assay: Test B flood test rice; format: in vivo, Oryza sativa
Summary of the method: (§2)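 Flood test on plants grown to the 2-leaf stage; treated plants kept in greenhouse twelve to sixteen days, then visually rated against controls on a 0 (no effect) to 10 (complete control) scale.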

cocklebur = assay: Test B pre/postemergence cocklebur; format: in vivo, Xanthium strumarium
Summary of the method: as §1

corn = assay: Test B pre/postemergence corn; format: in vivo, Zea mays
Summary of the method: as §1

duck salad = assay: Test B flood test duck salad; format: in vivo, Heteranthera limosa
Summary of the method: as §2

morningglory = assay: Test B pre/postemergence morningglory; format: in vivo, Ipomoea hederacea
Summary of the method: as §1

bamyardgrass = assay: Test B flood test barnyardgrass; format: in vivo, Echinochloa crus-galli
Summary of the method: as §2

crabgrass = assay: Test B pre/postemergence crabgrass; format: in vivo, Digitaria sanguinalis
Summary of the method: as §1

wheat = assay: Test B pre/postemergence wheat; format: in vivo, Triticum aestivum
Summary of the method: as §1

pigweed = assay: Test B pre/postemergence pigweed; format: in vivo, Amaranthus retroflexus
Summary of the method: as §1

velvetleaf = assay: Test B pre/postemergence velvetleaf; format: in vivo, Abutilon theophrasti
Summary of the method: as §1

sugar beet = assay: Test B pre/postemergence sugar beet; format: in vivo, Beta vulgaris
Summary of the method: as §1

purple nutsedge = assay: Test B pre/postemergence purple nutsedge; format: in vivo, Cyperus rotundus
Summary of the method: as §1

[1] = Preemergence, Rate 62 g/ha, scale of 0 to 10 where 0 is no effect and 10 is complete control
[2] = Preemergence, Rate 250 g/ha, scale of 0 to 10 where 0 is no effect and 10 is complete control
[3] = Preemergence, Rate 500 g/ha, scale of 0 to 10 where 0 is no effect and 10 is complete control
[4] = Rate 62 g/ha, Postemergence, scale of 0 to 10 where 0 is no effect and 10 is complete control
[5] = Rate 125 g/ha, Preemergence, scale of 0 to 10 where 0 is no effect and 10 is complete control
[6] = Rate 500 g/ha, Postemergence, scale 0 to 10, 0 no effect, 10 complete control
[7] = Rate 62 g/ha, headed Pre-emergence (flood test species), scale 0 to 10 (0 no effect, 10 complete control)
[8] = Rate 125 g/ha, Pre-emergence, flood test species, scale 0 to 10 where 0 is no effect and 10 is complete control
[9] = Rate 250 g/ha, Pre-emergence, flood-test species, scale 0 to 10, 0 is no effect, 10 is complete control
[10] = Rate 500 g/ha, Pre-emergence, flood test species, scale 0 to 10 (0 no effect, 10 complete control)
[11] = Rate 125 g/ha, Postemergence, scale 0 to 10

SMILES: CC(C)N(C(=O)n1oc(=O)n(C2CC2)c1=O)c1ccccc1 [Compound 243]
- Wild oats plant response rating (wild oat; [1]): 3
- Wild oats plant response rating (wild oat; [2]): 9
- Plant response rating, Wild oats (wild oat; [3]): 9
- Wild oats plant response rating (wild oat; [4]): 0
- Wild oats plant response rating (wild oat; [5]): 6
- Wild oats plant response rating (wild oat; [6]): 4
- Giant foxtail plant response rating (giant foxtail; [1]): 10
- Giant foxtail plant response rating (giant foxtail; [2]): 10
- Plant response rating, Giant foxtail (giant foxtail; [3]): 10
- Giant foxtail plant response rating (giant foxtail; [4]): 3
- Giant foxtail plant response rating (giant foxtail; [5]): 10
- Plant response rating (0 to 10; 0 is no effect, 10 is complete control), Giant foxtail (giant foxtail; Rate 250 g/ha, Postemergence): 8
- Giant foxtail plant response rating (giant foxtail; [6]): 8
- Soybean plant response rating (soybean; [1]): 0
- Soybean plant response rating (soybean; [2]): 8
- Plant response rating, Soybean (soybean; [3]): 9
- Soybean plant response rating (soybean; [4]): 3
- Soybean plant response rating (soybean; [5]): 0
- Soybean plant response rating (soybean; [6]): 8
- Rape plant response rating (rape; [1]): 0
- Rape plant response rating (rape; [2]): 9
- Plant response rating, Rape (rape; [3]): 10
- Rape plant response rating (rape; [4]): 0
- Rape plant response rating (rape; [5]): 5
- Plant response rating (0 to 10; 0 is no effect, 10 is complete control), Rape (rape; Rate 250 g/ha, Postemergence): 2
- Rape plant response rating (rape; [6]): 3
- Rice plant response rating (rice; [7]): 0
- Rice plant response rating (rice; [8]): 0
- Rice plant response rating (rice; [9]): 0
- Rice plant response rating (rice; [10]): 0
- Cocklebur plant response rating (cocklebur; [1]): 0
- Cocklebur plant response rating (cocklebur; [2]): 0
- Plant response rating, Cocklebur (cocklebur; [3]): 5
- Cocklebur plant response rating (cocklebur; [4]): 0
- Cocklebur plant response rating (cocklebur; [11]): 2
- Cocklebur plant response rating (cocklebur; [5]): 0
- Plant response rating (0 to 10; 0 is no effect, 10 is complete control), Cocklebur (cocklebur; Rate 250 g/ha, Postemergence): 4
- Cocklebur plant response rating (cocklebur; [6]): 0
- Corn plant response rating (corn; [1]): 2
- Corn plant response rating (corn; [2]): 6
- Plant response rating, Corn (corn; [3]): 9
- Corn plant response rating (corn; [4]): 0
- Corn plant response rating (corn; [11]): 2
- Corn plant response rating (corn; [5]): 3
- Plant response rating (0 to 10; 0 is no effect, 10 is complete control), Corn (corn; Rate 250 g/ha, Postemergence): 5
- Corn plant response rating (corn; [6]): 7
- Ducksalad plant response rating (duck salad; [7]): 0
- Ducksalad plant response rating (duck salad; [8]): 0
- Ducksalad plant response rating (duck salad; [9]): 0
- Ducksalad plant response rating (duck salad; [10]): 0
- Morningglory plant response rating (morningglory; [1]): 2
- Morningglory plant response rating (morningglory; [2]): 8
- Plant response rating, Morningglory (morningglory; [3]): 10
- Morningglory plant response rating (morningglory; [4]): 5
- Morningglory plant response rating (morningglory; [5]): 3
- Plant response rating (0 to 10; 0 is no effect, 10 is complete control), Morningglory (morningglory; Rate 250 g/ha, Postemergence): 7
- Morningglory plant response rating (morningglory; [6]): 8
- Barnyardgrass plant response rating (bamyardgrass; [7]): 0
- Barnyardgrass plant response rating (bamyardgrass; [8]): 0
- Barnyardgrass plant response rating (bamyardgrass; [9]): 0
- Barnyardgrass plant response rating (bamyardgrass; [10]): 0
- Crabgrass plant response rating (crabgrass; [1]): 7
- Crabgrass plant response rating (crabgrass; [2]): 9
- Plant response rating, Crabgrass (crabgrass; [3]): 10
- Crabgrass plant response rating (crabgrass; [4]): 3
- Crabgrass plant response rating (crabgrass; [5]): 8
- Plant response rating (0 to 10; 0 is no effect, 10 is complete control), Crabgrass (crabgrass; Rate 250 g/ha, Postemergence): 9
- Crabgrass plant response rating (crabgrass; [6]): 9
- Wheat plant response rating (wheat; [1]): 5
- Wheat plant response rating (wheat; [2]): 8
- Plant response rating, Wheat (wheat; [3]): 9
- Wheat plant response rating (wheat; [4]): 2
- Wheat plant response rating (wheat; [5]): 8
- Wheat plant response rating (wheat; [6]): 8
- Redroot pigweed plant response rating (pigweed; [1]): 6
- Redroot pigweed plant response rating (pigweed; [2]): 10
- Plant response rating, Redroot pigweed (pigweed; [3]): 10
- Redroot pigweed plant response rating (pigweed; [4]): 2
- Redroot pigweed plant response rating (pigweed; [5]): 9
- Plant response rating (0 to 10; 0 is no effect, 10 is complete control), Redroot pigweed (pigweed; Rate 250 g/ha, Postemergence): 7
- Redroot pigweed plant response rating (pigweed; [6]): 7
- Velvetleaf plant response rating (velvetleaf; [1]): 4
- Velvetleaf plant response rating (velvetleaf; [2]): 10
- Plant response rating, Velvetleaf (velvetleaf; [3]): 10
- Velvetleaf plant response rating (velvetleaf; [4]): 0
- Velvetleaf plant response rating (velvetleaf; [5]): 6
- Velvetleaf plant response rating (velvetleaf; [6]): 7
- Sugarbeets plant response rating (sugar beet; [1]): 2
- Sugarbeets plant response rating (sugar beet; [2]): 7
- Plant response rating, Sugarbeets (sugar beet; [3]): 10
- Sugarbeets plant response rating (sugar beet; [4]): 0
- Sugarbeets plant response rating (sugar beet; [5]): 3
- Sugarbeets plant response rating (sugar beet; [6]): 5
- Nutsedge plant response rating (purple nutsedge; [1]): 0
- Nutsedge plant response rating (purple nutsedge; [2]): 0
- Nutsedge plant response rating (purple nutsedge; [4]): 0
- Nutsedge plant response rating (purple nutsedge; [5]): 0
- Nutsedge plant response rating (purple nutsedge; [6]): 7
